“And” between values parts separate entries of the source, which are not always exact repeats. Identical values can stand only once. Ends that are not written are not given here.
Tests used:
MGC-803 cells = format: cell-based, human; conditions: 48 h
Method: (§1) For cell viability assays, cells were seeded into 96-well plates overnight to attach them to the plates, and then treated with GLUP for 48 h. Cells incubated for indicated periods of time were analyzed using an ATP-based CellTiter-Lumi^TM Plus kit (Beyotime) according to the manufacturer’s instructions. The intracellular ATP contents were measured using a BioTek Synergy^TM NEO multi-detector microplate reader (Thermo). Cell viability was calculated using the equation cell viability (%) = [[value (test) − value (blank)] × [value (control) − value (blank)]] −1 × 100.

BGC-823 cells = format: cell-based, human; conditions: 48 h
Method: as §1

AZ-521 cells = format: cell-based, human; conditions: 48 h
Method: as §1

AGS cells = format: cell-based, human; conditions: 48 h
Method: as §1

SNU-216 cells = format: cell-based, human; conditions: 48 h
Method: as §1

SH-10-TC cells = format: cell-based, human; conditions: 48 h
Method: as §1

HGC-27 cells = format: cell-based, human
Method: as §1

MKN-28 cells = format: cell-based, human; conditions: 48 h
Method: as §1

MKN-45 cells = format: cell-based, human; conditions: 48 h
Method: as §1

GES-1 cells = format: cell-based, human; conditions: 48 h
Method: as §1

[1] = test system: trypsin, actinase E, thermolysin, proteinase K, chymotrypsin-α; assay: Stability of peptides treated with proteases (gel); format: in vitro ADME; conditions: 30 °C for 1 h, gel read-out
Source text: To improve the stability and bioavailability of glup, we subjected it to disulfide-cyclization and C-terminal amidation to generate a macrocyclic version of the peptide and denoted it as GLUP (Fig. 5D). […] However, there were no significant differences in solubility, permeability, and TEAD4-binding affinity between GLUP and glup (Fig. 5F and Appendix Figs. S5F–H). […] These droplets rapidly dissolved when exposed to increased concentrations of NaCl (Fig. 5G, right).
Appendix Figure S5. Optimization of the Linker Peptide
A. Fluorescence polarization (FP) assay to detect the interaction of purified TEAD4 protein with FA M-labeled glup. mP, millipolarization (FP values). B. Microscale […]
protein with glup or glupmut. Kd values are shown. glupmut, an interaction-dead control peptide with the sequence […]. C. Crosslinking assay of TEAD4 […]
oligomerization in the presence of glup or glupmut after DSS treatment. D. Crosslinking assay of TEAD4 oligomerization in the presence of glup or GLUP with or without DSS treatment. E. Gels assessing protein stability levels of glup and GLUP after they were treated with indicated proteases. TR, trypsin; AE, actinase E; TH, thermolysin; PK, proteinase K; CH-α, chymotrypsin-α. […]
(right). […] The data were analyzed using one-way ANOVA, followed by the Tukey’s post-hoc test. *, p < 0.05; **, […]

HGC-27 xenograft tumors = assay: HGC-27 xenograft tumor formation assay; format: in vivo, mouse; set-up: Tumor volume, GLUP+ / Tumor volume, GLUP++: unit not given here
Source text: Mice used in this study were from SLAC Laboratory Animal (Shanghai, China), and included 4-week-old BALB/c nude mice (female) and 8-week-old C57BL/6J mice (male and female). Tumors were allowed to grow to an average size of ~60 mm^3 and then the mice were randomly allocated to groups of 5–6 animals. No blinding was used in the treatment schedules for these experiments since the different treatments were identified by different marks on the tail. Based on our previous experience, 5–6 animals per group would provide statistically significant data while keeping the number of animals used to a minimum. Tumor size was determined by taking caliper measurements of tumor length, width and depth; tumor volume was calculated as 0.5236 × length × width × depth (mm^3).
Healthy female BALB/c nude mice were maintained in pathogen-free conditions to which they were allowed to acclimate for 1 week before being used. For the tumor formation assay, tumor cells (1 × 10^6) were injected into the respective flanks of the mice. Mice in which tumors were detected with an average size of ~60 mm^3 were biweekly administered 1 or 5 mg/kg GLUP via subcutaneous injection. These mice were sacrificed after 4 weeks, and tumor volumes were then measured.

RRVCVHFHFSLSLR-NH2 (C-terminus assumed) [glup]
IC50 (MGC-803 cells): 2.5 mg/L
IC50 (BGC-823 cells): 26.1 mg/L
IC50 (AZ-521 cells): 8.1 mg/L
IC50 (AGS cells): 34 mg/L
IC50 (SNU-216 cells): 23.4 mg/L
IC50 (SH-10-TC cells): 26.3 mg/L
Cell death (HGC-27 cells; HGC-27, 0.1 µg/ml GLUP, 48 h (peer review file, Figure R22C)): ~60%
Suppression of cell growth with or without YAP (5SA) overexpression (HGC-27 cells; HGC-27, 0.1/1 µg/ml GLUP (peer review file, Figure R23)): regardless of YAP (5SA) expression
IC50 (MKN-28 cells): 6.7 mg/L
IC50 (MKN-45 cells): 7.3 mg/L
IC50 (GES-1 cells): 13.1 mg/L
Stability towards various proteases [1]: almost completely digested
Stability towards various proteases ([1]; listed as GLUP): remained intact
Growth of xenografted tumors (HGC-27 xenograft tumors; 1 or 5 mg/kg GLUP): inhibited growth of xenografted tumors in a dose-dependent manner
Tumor volume, GLUP+ (HGC-27 xenograft tumors; nude mice, 1 mg/kg GLUP s.c. biweekly, individual mice, n = 5 (source data Fig 7E), 1 mg/kg): 0.858 and 0.629 and 0.519 and 0.753 and 0.732
Tumor volume, GLUP++ (HGC-27 xenograft tumors; nude mice, 5 mg/kg GLUP s.c. biweekly, individual mice, n = 5 (source data Fig 7E), 5 mg/kg): 0.345 and 0.321 and 0.256 and 0.423 and 0.503

From paper PMC11574045, “A cofactor-induced repressive type of transcription factor condensation can be induced by synthetic peptides to suppress tumorigenesis” (The EMBO Journal, 2024)
